# Columns and labels:
# [1] = system: U87 glial blastoma; assay: in vitro amino acid uptake, U87 cells; format: cell-based, human
# Text: (§1) The inventive compounds have been evaluated in vitro for tumor binding specificity (i.e. uptake cells) using a variety of tumor cell lines available in the art, along with reference compounds such as Me-AIB and BCH. Detailed description of these assays can be found in Martarello et al. (2002) Journal of Medicinal Chemistry, 45:2250-2259 and McConathy et al. (2003) Nuclear Medicine and Biology, 30:477-490. These, so called “amino acid uptake studies” are typically carried out with radiolabeled compounds in at least five phenotypically different human tumor cell lines (e.g. A549 lung carcinoma, MB468 breast carcinoma, DU145 prostate carcinoma, SKOV3 ovarian carcinoma, and U87 glial blastoma). These tumor cell lines can be grown either in vitro or in vivo with severe combined immunodeficiency (SCID) mice as a host. The fore-mentioned tumor cell lines are available at the Winship Cancer Institute of Emory University.
# (§2) For the in vitro amino acid uptake studies, all cells can be grown to monolayer confluency in T-175 culture flasks [Corning, Corning, N.Y.] (approx. 1×10^8 cells/flask) in Dulbecco's Modified Eagle's Medium (DMEM) [Sigma, St. Louis, Mo.] in a humidified incubator (37° C., 5% CO2/95% air). Media are supplemented with 10% fetal calf serum [Hyclone, Logan, Utah], and antibiotics (10,000 U/ml penicillin and 10 mg/ml streptomycin) (Sigma, St. Louis, Mo.). For tissue culture passage, monolayer cells are detached by gentle trypsinization, resuspended in complete media, and split 1:10 into new T-flasks. […]
# (§3) In the in vitro studies the uptake rate of each amino acid compound is measured in each tumor line, as well as the dominant transport mechanisms of each tumor cell line. After trypsinization, cells are resuspended in serum-free media, then counted on a hemocytometer, with viability assessed through Trypan blue staining. […] The vials are placed in a Cobra-II gamma counter (Packard, Meriden, Conn.), with the activity per cell number determined. […] Saline washes are performed as described above, and the filtered cells radioactivity determined on the gamma counter. […]
# [2] = system: MB468 Breast Tumor Cells Implanted SC in SCID Mice; assay: tissue distribution, MB468 tumor-bearing SCID mice; format: in vivo
# Protocol: For the in vitro amino acid uptake studies, all cells can be grown to monolayer confluency in T-175 culture flasks [Corning, Corning, N.Y.] (approx. 1×10^8 cells/flask) in Dulbecco's Modified Eagle's Medium (DMEM) [Sigma, St. Louis, Mo.] in a humidified incubator (37° C., 5% CO2/95% air). Media are supplemented with 10% fetal calf serum [Hyclone, Logan, Utah], and antibiotics (10,000 U/ml penicillin and 10 mg/ml streptomycin) (Sigma, St. Louis, Mo.). For tissue culture passage, monolayer cells are detached by gentle trypsinization, resuspended in complete media, and split 1:10 into new T-flasks. Cultures are passaged weekly, and fed fresh media every 2 to 3 days. To initiate tumor growth in SCID mice, 1×10^6 cells are injected s.c. bilaterally into the flanks (inguinal region) of the recipient animals using a 1 ml syringe with a 27 gauge needle. Ex vivo experiments can be performed with animals containing tumors weighing between 500 mg and 1 g, as estimated by caliper measurement (tumor weight=(π/6)*abc, where a, b and c are the tumor length, width and height, respectively). The compounds of the invention are further evaluated for their tumor specificity and selectivity in tumor-bearing animal models. One can evaluate and compare the transport, accumulation and tissue distribution of each compound in these in vivo animal studies. Tissue distribution of the compounds is measured in SCID mice (average weight, 20-25 g) bearing human tumors as follows. The candidate radioligands (20 uCi in 0.4 ml 0.9% NaCl) are injected into the tail vein of tumor-bearing mice. […] Tissues (blood, heart, liver, lungs, kidneys, bone, thyroid, muscle, brain and tumor) are excised, rinsed in saline, and blotted dry. The tissues are weighed, placed into 12×75 mm glass vials, the radioactivity determined with a gamma counter, and the percent dose/gram calculated. Total activities of blood and muscle are calculated by assuming that they account for 7% and 40% of the total body mass, respectively.
# [3] = system: MB468 breast carcinoma; assay: in vitro amino acid uptake, MDA MB 468 cells; format: cell-based, human
# Text: as §1, §2, §3
structure (smiles),measurement,setting,value
"NC1(C(=O)O)CCC1[18F] [Anti-R,S 2-[^18F]FACBC, (R,S) anti-1-amino-2-[^18F]fluorocyclobutyl-1-carboxylic acid]",% Dose Uptake/0.5e6 Cells,"[1]; U87, No inhibitor",8.28 +/− 0.45 % Dose Uptake/0.5e6 Cells
same,% Dose Uptake/0.5e6 Cells,"[1]; U87, inhibitor BCH (10 mM)",2.48 +/− 0.23 % Dose Uptake/0.5e6 Cells
same,% Dose Uptake/0.5e6 Cells,"[1]; U87, inhibitor MeAlB (10 mM)",5.41 +/− 0.64 % Dose Uptake/0.5e6 Cells
same,% Dose/g blood,[2]; 15 Minutes,3.26 % Dose/g
same,% Dose/g bone,[2]; 15 Minutes,1.46 % Dose/g
same,% Dose/g brain,[2]; 15 Minutes,0.23 % Dose/g
same,% Dose/g heart,[2]; 15 Minutes,2.21 % Dose/g
same,% Dose/g kidney,[2]; 15 Minutes,8.62 % Dose/g
same,% Dose/g liver,[2]; 15 Minutes,2.51 % Dose/g
same,% Dose/g lung,[2]; 15 Minutes,4.02 % Dose/g
same,% Dose/g muscle,[2]; 15 Minutes,1.29 % Dose/g
same,% Dose/g pancreas,[2]; 15 Minutes,36.85 % Dose/g
same,% Dose/g spleen,[2]; 15 Minutes,4.47 % Dose/g
same,% Dose/g tumor,[2]; 15 Minutes,2.71 % Dose/g
same,% Dose/g blood,[2]; 30 Minutes,2.39 % Dose/g
same,% Dose/g bone,[2]; 30 Minutes,1.31 % Dose/g
same,% Dose/g brain,[2]; 30 Minutes,0.20 % Dose/g
same,% Dose/g heart,[2]; 30 Minutes,1.89 % Dose/g
same,% Dose/g kidney,[2]; 30 Minutes,6.49 % Dose/g
same,% Dose/g liver,[2]; 30 Minutes,2.49 % Dose/g
same,% Dose/g lung,[2]; 30 Minutes,2.98 % Dose/g
same,% Dose/g muscle,[2]; 30 Minutes,1.12 % Dose/g
same,% Dose/g pancreas,[2]; 30 Minutes,35.25 % Dose/g
same,% Dose/g spleen,[2]; 30 Minutes,4.11 % Dose/g
same,% Dose/g tumor,[2]; 30 Minutes,2.83 % Dose/g
same,% Dose/g blood,[2]; 60 Minutes,1.00 % Dose/g
same,% Dose/g bone,[2]; 60 Minutes,0.92 % Dose/g
same,% Dose/g brain,[2]; 60 Minutes,0.15 % Dose/g
same,% Dose/g heart,[2]; 60 Minutes,1.27 % Dose/g
same,% Dose/g kidney,[2]; 60 Minutes,2.41 % Dose/g
same,% Dose/g liver,[2]; 60 Minutes,1.29 % Dose/g
same,% Dose/g lung,[2]; 60 Minutes,1.37 % Dose/g
same,% Dose/g muscle,[2]; 60 Minutes,1.07 % Dose/g
same,% Dose/g pancreas,[2]; 60 Minutes,19.20 % Dose/g
same,% Dose/g spleen,[2]; 60 Minutes,3.05 % Dose/g
same,% Dose/g tumor,[2]; 60 Minutes,2.19 % Dose/g
same,% Dose/g blood,[2]; 120 Minutes,0.35 % Dose/g
same,% Dose/g bone,[2]; 120 Minutes,0.71 % Dose/g
same,% Dose/g brain,[2]; 120 Minutes,0.13 % Dose/g
same,% Dose/g heart,[2]; 120 Minutes,0.69 % Dose/g
same,% Dose/g kidney,[2]; 120 Minutes,0.89 % Dose/g
same,% Dose/g liver,[2]; 120 Minutes,0.56 % Dose/g
same,% Dose/g lung,[2]; 120 Minutes,0.51 % Dose/g
same,% Dose/g muscle,[2]; 120 Minutes,0.66 % Dose/g
same,% Dose/g pancreas,[2]; 120 Minutes,7.96 % Dose/g
same,% Dose/g spleen,[2]; 120 Minutes,1.01 % Dose/g
same,% Dose/g tumor,[2]; 120 Minutes,1.44 % Dose/g
same,% Dose Uptake/0.5e6 Cells,"[3]; MDA MB 468, No inhibitor",7.37 +/− 0.21 % Dose Uptake/0.5e6 Cells
same,% Dose Uptake/0.5e6 Cells,"[3]; MDA MB 468, inhibitor BCH (10 mM)",1.67 +/− 0.36 % Dose Uptake/0.5e6 Cells
same,% Dose Uptake/0.5e6 Cells,"[3]; MDA MB 468, inhibitor MeAlB (10 mM)",3.02 +/− 0.55 % Dose Uptake/0.5e6 Cells

# — US8834841B2, “Imaging agents” (priority 2005, dated 2014)
